According to patent US20250382556A1, “MODULATION OF THE BRANCHED-CHAIN METABOLITE CONTENT OF FRUITS AND VEGETABLES” (BOARD OF TRUSTEES OF MICHIGAN STATE UNIVERSITY, priority 2024, published 2025):

Columns and labels:
[1] = system: apple fruit; test: Headspace volatile ester emissions of ripening apple fruit treated with AHAS inhibitor; type: in vivo, Malus x domestica Borkh.; set-up: key to butyl acetate emissions compared to control / hexyl acetate emissions compared to control / ethyl acetate emissions compared to control / propyl acetate emissions compared to control: —: Dash indicates no significant difference between treatments; conditions: for 2-methylbutyl acetate (ile) emissions compared to control / 2-methylpropyl acetate (val) emissions compared to control / butyl acetate emissions compared to control / ethyl acetate emissions compared to control / hexyl acetate emissions compared to control / pentyl acetate emissions compared to control / propyl acetate emissions compared to control / sum of anteiso- and iso-branched-chain esters emissions compared to control: 1 mM daily
Procedure: (§1) Whole apple fruit, freshly harvested and at an early stage of ripening (‘ripening’), were held at room temperature (22° C.) and rubbed daily with 3 mL of a freshly made 1mM solution of the inhibitor rimsulfuron (N-((4,6-dimethoxypyrimidin-2-yl)aminocarbonyl)-3-(ethylsulfonyl)-2-pyridinesulfonamide, made from DuPont MATRIX® SG, 25% w/w active ingredient; 0.1% Tween 20) or water solution containing 0.1% Tween 20 before preparation with further treatments. Flowering quince fruit were smaller than the apple fruit and had 2 mL of the control and treatment solutions applied daily at 22° C. ‘Gala’, ‘Empire’, and ‘Jonagold’ apple fruit were treated for four, nine, and seven days before further preparation, respectively. Flowering quince fruit were treated for six days before analysis. Headspace volatile emissions were monitored for three or four representative fruits during the incubation/treatment period to determine appropriate times for further treatments. During method testing, 1 mM solutions of the imidazolinone imazamox was also assessed with apple fruit (2-[4,5-dihydro-4-methyl-4-(1-methylethyl)-5-oxo-1H-imidazol-2-yl]-5-(methoxymethyl)-3-pyridinecarboxylic acid, made from RAPTOR®, 12.1% w/w active ingredient; 0.1% Tween 20).
(§2) Headspace volatiles from small tissue samples incubated in 22 mL vials were adsorbed for 30 s using a solid-phase micro extraction (SPME) fiber (65 μm PDMS-DVB; Supelco Analytical). The SPME fiber was then directly desorbed for 1 min in the injection port of a gas chromatograph (GC; HP-6890, Hewlett-Packard) coupled to a time-of-flight mass spectrometer (MS; Pegasus II, LECO). Whole fruits and banana slices were incubated for 20 min at room temperature (22° C.) in 1-L sealed Teflon jars before a 15-s, or 3-min adsorption and 1- or 2-min desorption. Adsorption times were adjusted to ensure instrument responses were in the linear range. All desorbed volatiles were cryofocused at the beginning of the column by immersing said region of the column in liquid nitrogen. After the desorption period, the run was initiated and the liquid nitrogen removed.
(§3) The conditions of the system were as follows. Injection port: 200° C., splitless, ultra-purified helium (99.999%) carrier gas, front inlet flow 1.5 mL·min^−1 constant, 10 mL·min^−1 purge flow, 11.5 mL·min^−1 total flow. Oven: initial temperature 40° C. for 0 min, ramped by 43° C.·min^−1 to 185° C. for 0 min. Column: HP-5 MS, 30 m×0.25 mm i.d., 0.25 μm film thickness (Agilent). Transfer line temperature 225° C. MS: Electron ionization (−70 eV), ion source temperature 200° C., solvent delay 50 sec, m/z range 29 to 400, detector voltage 1500 V, data collection rate 20 Hz.
(§4) Compounds were identified by comparison of the retention time and mass spectrum against authenticated reference standards and spectra (National Institute of Standards and Technology Mass Spectral Search Program Version 2.0, 2001). Volatiles were quantified by calibration with a standard of 59 authenticated, high-purity compounds (Sigma-Aldrich Co. and Fluka Chemical) including the target compounds. The standard was made by placing 0.5 μL of an equal-part mixture of the neat compounds onto a disc of filter paper before quickly placing the filter paper into a 4-L sealed flask fitted with a Mininert valve (for SPME fiber access, and allowed to vaporize for at least 6 hours. SPME adsorption and desorption times of the standard matched that of the samples quantified (e.g., 30-s adsorption, 1 min desorption when quantifying samples in 22-mL vials).
(§5) Statistical analysis was performed using SciPy (v1.6.2), RStudio (v2023.03.0+386), or Microsoft Excel (v16.89). Against a specified value: one-tailed t-test Against two treatments: paired t-test for banana, two-sample t-test for apple and flowering quince. Against more than two treatments: Tukey's test following significant ANOVA. Analyses of branched-chain amino acids were one-tailed, all other metabolites were two-tailed. […]

[2] = system: flowering quince fruit; test: Headspace volatile emissions of flowering quince fruit treated with AHAS inhibitor; type: in vivo, Chaenomeles x superba; set-up: key to butyl acetate emissions compared to control: —: Dash indicates no significant difference between treatments
Procedure: as §1, §2, §3, §4, §5

[3] = ripening Empire apple peel, nine days
[4] = ripening Gala apple peel, four days
[5] = ripening Jonagold apple peel, seven days
[6] = Dr. Banks Pink flowering quince
[7] = Dr. Banks Pink flowering quince peel, 1 mM daily, six days

## CCS(=O)(=O)c1cccnc1S(=O)(=O)NC(=O)Nc1nc(OC)cc(OC)n1 [rimsulfuron, N-((4,6-dimethoxypyrimidin-2-yl)aminocarbonyl)-3-(ethylsulfonyl)-2-pyridinesulfonamide]
[1]; all three cultivars (Gala, Empire, Jonagold), on average
  concentration of pentyl acetate, more abundant when treated: 1.63 fold
[1]; [3]
  2-methylbutyl acetate (ile) emissions compared to control: 1.9 ± 0.6%
  2-methylpropyl acetate (val) emissions compared to control: 27.3 ± 5.4%
  butyl acetate emissions compared to control: —
  ethyl acetate emissions compared to control: 61.4 ± 7.9%
  hexyl acetate emissions compared to control: —
  pentyl acetate emissions compared to control: 161.9 ± 16.0%
  propyl acetate emissions compared to control: 53.8 ± 8.5%
  sum of anteiso- and iso-branched-chain esters emissions compared to control: 0.8 ± 0.2%
[1]; [4]
  2-methylbutyl acetate (ile) emissions compared to control: 27.0 ± 6.3%
  2-methylpropyl acetate (val) emissions compared to control: 36.4 ± 5.0%
  butyl acetate emissions compared to control: —
  ethyl acetate emissions compared to control: 57.7 ± 9.3%
  hexyl acetate emissions compared to control: —
  pentyl acetate emissions compared to control: 155.3 ± 17.5%
  propyl acetate emissions compared to control: —
  sum of anteiso- and iso-branched-chain esters emissions compared to control: 19.0 ± 4.5%
[1]; ripening Gala, Empire and Jonagold
  effect on butyl acetate: no discernible effect
[1]; ripening Gala, Empire and Jonagold apple fruits, on average
  reduction of the total content of anteiso-branched-chain esters in the headspaces: 91.2%
[1]; ripening Gala, Empire and Jonagold, all three cultivars
  2-methylpropyl acetate in headspace following treatment: reduced
[1]; [5]
  2-methylbutyl acetate (ile) emissions compared to control: 16.1 ± 1.4%
  2-methylpropyl acetate (val) emissions compared to control: 67.6 ± 4.1%
  butyl acetate emissions compared to control: —
  ethyl acetate emissions compared to control: —
  hexyl acetate emissions compared to control: 162.7 ± 19.2%
  pentyl acetate emissions compared to control: 172.3 ± 20.2%
  propyl acetate emissions compared to control: —
  sum of anteiso- and iso-branched-chain esters emissions compared to control: 6.5 ± 0.5%
[2]; [6]
  butyl acetate, ethyl butanoate, estragole, or linalool versus untreated: No difference
  less 2-methylpropyl acetate and 2-methylbutyl acetate than untreated fruits: 94.6%
  more propyl acetate than untreated fruits: 22.7 fold
[2]; [7]
  2-methylbutyl acetate (ile) emissions compared to control: 5.2 ± 3.9%
  2-methylpropyl acetate (val) emissions compared to control: 1.1 ± 1.4%
  butyl acetate emissions compared to control: —
  propyl acetate emissions compared to control: 2265.0 ± 869.0%
  sum of anteiso- and iso-branched-chain esters emissions compared to control: 3.0 ± 2.4%
